System: E. coli
Test: MIC against E. coli
Assay type: cell-based
Settings: Escherichia coli, read-out: MIC (μg/mL) in metallic Zn or Cu
Source text: Table 1 illustrates the minimum inhibitory concentration against E. coli for various agents.

Q: How did the MIC turn out when O=C([O-])c1ccccc1O.[Na+] [Capping Agent, sodium salicylate] was run?
A: Its MIC is 3000 µg/mL.

Source: patent US11910798B2, “Compositions including a vacancy-engineered (VE)-ZnO nanocomposite, methods of making the compositions and methods of using the compositions” (priority 2015, dated 2024)
